In general, chromatographic logP refers to a lipophilicity value derived from retention on a column. The low end stands for lower lipophilicity, the high end for higher lipophilicity.

The subject of series [1] is larvae of the diamondback moth (Plutella xylostella). The series is described as follows: Comparative Plutella xylostella spray test (PLUTMA). The format is in vivo. The settings on record: 168 h, 7 dat, read-out: % efficacy. The procedure:
(§1) Solvent: 14 parts by weight of dimethylformamide
(§2) Emulsifier: alkylaryl polyglycol ether
(§3) To produce a suitable active compound formulation, 1 part by weight of active compound is dissolved with the specified parts by weight of solvent and made up to the desired concentration with water containing an emulsifier concentration of 1000 ppm. To produce further test concentrations, the formulation is diluted with emulsifier-containing water. If the addition of ammonium salts or/and penetrants is required, these are each added in a concentration of 1000 ppm to the formulation solution.
Cabbage leaves (Brassica oleracea) are sprayed with an active ingredient formulation of the desired concentration and infected with larvae of the diamondback moth (Plutella xylostella).
(§4) After the desired time, the kill in % is determined. 100% means that all caterpillars have been killed; 0% means that none of the caterpillars have been killed.

In series [2] the test system is green peach aphid (Myzus persicae). Briefly: Comparative Myzus persicae spray test (MYZUPE). The format is in vivo. The settings on record: 144 h, 6 dat, read-out: % efficacy. The procedure: as §1, §2, §3
Bell pepper plants (Capsicum annuum) severely infested with the green peach aphid (Myzus persicae) are treated by spraying with the active ingredient formulation in the desired concentration.
After the desired time, the kill in % is determined. 100% means that all the animals have been killed; 0% means that no animals have been killed.

In series [3] the test system is L2 larvae of the banded cucumber beetle (Diabrotica balteata). The series is described as follows: Comparative Diabrotica balteata drench test (DIABBA D). The format is in vivo. The settings on record: soil, 192 h, 8 dat, read-out: % efficacy. How it is done:
(§5) Solvent: 7 parts by weight of dimethylformamide
(§6) Emulsifier: 2 parts by weight of alkylaryl polyglycol ether
(§7) To produce a suitable active ingredient formulation, 1 part by weight of active ingredient is mixed with the specified amounts of solvent and emulsifier, and the concentrate is diluted with water to the desired concentration, it being necessary to take into account the volume of soil which is drenched. It should be ensured that a concentration of 40 ppm of emulsifier in the soil is not exceeded. To produce further test concentrations, water is used for dilution.
In each case 5 maize corns (Zea mays) are sown into pots filled with earth, and the next day the pots are watered with the active compound preparation of the desired concentration. After one day, about 25 L2 larvae of the banded cucumber beetle (Diabrotica balteata) are added.
After 8 days, the efficacy in % is determined. 100% means that all 5 plants have germinated and grown; 0% means that none of the plants has emerged.

The test system of series [4] is larvae of the mustard beetle (Phaedon cochleariae). Briefly: Phaedon cochleariae spray test. The format is in vivo. The settings on record: foliar, 168 h, 100 g/ha, after 7 days, Chinese cabbage leaf discs, read-out: efficacy. The method in brief:
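Chinese cabbage leaf discs sprayed with compound formulated in acetone/DMF and emulsifier-containing water, then infested with mustard beetle larvae after drying. Efficacy (% larvae killed) scored after 7 days.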

In series [5] the test system is adult dog ticks (Rhipicephalus sanguineus). Briefly: Rhipicephalus sanguineus in vitro contact test with adult brown dog ticks. The format is in vivo. The settings on record: application rate 5 μg/cm^2, after 48 h, dead or moribund ticks. The procedure:
For the coating of the test tubes, 9 mg of active compound are first dissolved in 1 ml of acetone p.a. and then diluted to the desired concentration with acetone p.a. 250 μl of the solution are distributed homogeneously on the inner walls and the base of a 25 ml glass tube by turning and rocking on an orbital shaker (rocking rotation at 30 rpm for 2 h). With 900 ppm of active compound solution and internal surface area 44.7 cm^2, given homogeneous distribution, an area-based dose of 5 μg/cm^2 is achieved.
After the solvent has evaporated off, the tubes are populated with 5-10 adult dog ticks (Rhipicephalus sanguineus), sealed with a perforated plastic lid and incubated in a horizontal position in the dark at room temperature and ambient humidity. After 48 h, efficacy is determined. To this end, the ticks are knocked to the base of the tube and incubated on a hotplate at 45-50° C. for not more than 5 min. Ticks which remain motionless on the base or move in such an uncoordinated manner that they are unable to deliberately avoid the heat by climbing upwards are considered to be dead or moribund.
An efficacy of 100% means that all the ticks were dead or moribund. 0% efficacy means that none of the ticks were harmed.

The test system of series [6] is caterpillars of the armyworm (Spodoptera frugiperda). The series is described as follows: Comparative Spodoptera frugiperda spray test (SPODFR). The format is in vivo. The settings on record: 168 h, 7 dat, read-out: % efficacy. The procedure: as §1, §2, §3
Cotton leaves (Gossypium hirsutum) are sprayed with an active ingredient formulation of the desired concentration and populated with caterpillars of the armyworm (Spodoptera frugiperda).
as §4

For series [7], the system named is green peach aphids (Myzus persicae). Briefly: Myzus persicae oral test. The format is in vivo. The settings on record: 120 h, 4 ppm, after 5 days, read-out: efficacy. How it is done: Solvent: 100 parts by weight of acetone
To produce a suitable active compound formulation, 1 part by weight of active compound is dissolved with the stated parts by weight of solvent and made up to the desired concentration with water.
50 μl of the active compound formulation are transferred into microtitre plates and made up to a final volume of 200 μl with 150 μl of IPL41 insect medium (33%+15% sugar). Subsequently, the plates are sealed with parafilm, which a mixed population of green peach aphids (Myzus persicae) within a second microtitre plate is able to puncture and imbibe the solution.
After 5 days, the efficacy in % is determined. 100% means that all the aphids have been killed; 0% means that no aphids have been killed.

Series [8] concerns southern root-knot nematode (Meloidogyne incognita). Briefly: Meloidogyne incognita test. The format is in vivo. The settings on record: 20 ppm, after 14 days, lettuce. The procedure: Solvent: 125.0 parts by weight of acetone
To produce a suitable active compound formulation, 1 part by weight of active compound is mixed with the stated amount of solvent and the concentrate is diluted to the desired concentration with water.
Vessels are filled with sand, active compound solution, an egg/larvae suspension of the southern root-knot nematode (Meloidogyne incognita) and lettuce seeds. The lettuce seeds germinate and the plants develop. The galls develop on the roots.
After 14 days, the nematicidal efficacy in % is determined by the formation of galls. 100% means that no galls were found; 0% means that the number of galls on the treated plants corresponds to the untreated control.

Series [9] in a line: logP by HPLC on reversed-phase column (C18), acidic range. The format is physicochemical. The settings on record: reversed-phase HPLC column (C18), formic acid in water/acetonitrile. How it is done:
The logP values were determined according to EEC Directive 79/831 Annex V.A8 by HPLC (high-performance liquid chromatography) on a reversed-phase column (C18) using the following methods:
Calibration was carried out using a homologous series of straight-chain alkan-2-ones (having 3 to 16 carbon atoms) with known logP values. The values between successive alkanones are determined by linear regression.

Series [10] has as its system caterpillars of the armyworm (Spodoptera frugiperda). The series is described as follows: Comparative Spodoptera frugiperda drench test (SPODFR D). The format is in vivo. The settings on record: soil, 336 h, 14 dat, read-out: % efficacy. How it is done:
as §5, §6, §7
Maize plants (Zea mays) in pots of soil are watered with an active ingredient formulation of the desired concentration and infected with caterpillars of the armyworm (Spodoptera frugiperda).
as §4

As for `CCS(=O)(=O)c1c(-c2nc3cc(C(F)(F)F)cnc3n2C)nc2cc(C3(C#N)CC3)ccn12` [Example I-11, 1-{3-(Ethylsulfonyl)-2-[3-methyl-6-(trifluoromethyl)-3H-imidazo[4,5-b]pyridin-2-yl]imidazo[1,2-a]pyridin-7-yl}cyclopropanecarbonitrile], the Emax at 0.16 ppm in series [1], in [6] and in series [10] was 100% each time. For the same compound, the figures for the Emax at 0.8 ppm in series [2] and in series [3] (0.8 ppm) were 90% and 80%, respectively. The Emax at 4 ppm in series [3] (4 ppm) stood at 100%. Also, the pest or weed control at 100 g/ha in [4] is 100%. This compound gave an efficacy in [5] of 100%. Moreover, the pest or weed control at 4 ppm in series [7] was determined as 90%. Besides, in [8], the “nematicidal efficacy (formation of galls)” value was 100%. The compound also showed a chromatographic logP in series [9] of 2.88.

Values taken from patent publication USRE50663E1, “Heterocycle derivatives as pesticides” (Bayer Aktiengesellschaft, priority 2017, dated 2025).
